# Experiments:
# [1] = tested on: HeLa 654 cells; assay: HeLa-654 eGFP assay (corrective splicing / exon skipping by PMO IVS2-654); type: cell-based, human; settings: eGFP fluorescence of PMO-peptide conjugate relative to unconjugated PMO; 5 μM, 22 h
# Description: With the 36 constructs synthesized, the ability to modulate PMO activity using the modified HeLa cell assay was tested. The HeLa-654 cells were stably transfected to express a nonfluorescent eGFP protein. The eGFP gene is interrupted by a mutant intron from the human β-globin gene (IVS2-654). The insertion alters pre-mRNA splicing to cause retention of a fragment in the mature mRNA that results in a nonfluorescent protein. PMO IVS2-654 base-pairs with the B-globin insertion, modifies mRNA splicing, and thereby leads to expression of fluorescent eGFP.
# For treatment, the crude reaction mixture was diluted to 5 μM in media. The concentration of the modular construct was calculated based on the original concentration of the module 1-2 conjugate mixed in the reaction. Using media containing 10% fetal bovine serum (FBS), the cells were treated with each construct for 22 hours, after which the cellular fluorescence was measured by flow cytometry.
# From the lists of hundreds of predicted peptide sequences, twenty candidates were selected that varied in length, charge, and predicted activity to synthesize and test. Just as with the PMO-peptide library, the PMO-Mach constructs were first tested for PMO delivery in the HeLa 654 assay at 5 μM in complete media for 22 hours and analyzed by flow cytometry (FIG. 14). Experiments were conducted using three technical triplicates and two or three biological replicates.
# (§1) HeLa 654 cells were maintained in MEM supplemented with 10% (v/v) fetal bovine serum (FBS) and 1% (v/v) penicillin-streptomycin at 37° C. and 5% CO2. Eighteen hours prior to treatment, the cells were plated at a density of 5,000 cells per well in a 96-well plate in MEM supplemented with 10% FBS and 1% penicillin-streptomycin. The day of the experiment, the 384 well plate containing the crude reaction mixtures in DMSO was diluted to 100 μM by the addition of 16.8 μL of PBS to the 3.2 μL reaction mixture. Then, each construct was diluted to 5 μM in MEM supplemented with 10% FBS and 1% penicillin-streptomycin. Cells were incubated with each conjugate at a concentration of 5 μM for 22 hours at 37° C. and 5% CO2. Next, the treatment media was aspirated the cells were incubated with Trypsin-EDTA 0.25% for 15 min at 37° C. and 5% CO2, washed 1× with PBS, and resuspended in PBS with 2% FBS and 2 μg/mL propidium iodide. Flow cytometry analysis was carried out on a BD LSRII flow cytometer. Gates were applied to the data to ensure that cells that were highly positive for propidium iodide or had forward/side scatter readings that were sufficiently different from the main cell population were excluded. Each sample was capped at 5,000 gated events.
# Analysis was conducted using Graphpad Prism 7. For each sample, the mean fluorescence intensity and the number of gated cells was measured (FIGS. 8 and 9) and the intensity multiplied by the cell number was calculated (FIG. 7).
# [2] = tested on: HeLa 654 cells; assay: Cytotoxicity by gated cell count and propidium iodide staining in flow cytometry; type: cell-based, human; settings: at the concentrations tested in dose-response, 22 h
# Excerpt: The different modules led to several noticeable trends in the level of cellular fluorescence (FIG. 6). When module 2 was DPV6, the overall construct consistently led to high fluorescence, regardless of which peptides were placed in module 3 and 4. However, when either pVEC or TP10 was placed in module 2, minor cellular fluorescence was observed. A gated cell count was used during flow cytometry as an indirect read-out to control for the toxicity of the compounds. Highly toxic compounds led to a reduction in overall cell count and non-viable cells were gated out based upon propidium iodide staining. In this experiment, it was observed that when the module 3 peptide was the nuclear localization sequence KRVK, lower cell counts were consistently observed.
# In the same format as described above, HeLa 654 cells were treated with varying concentrations of Mach 2, 3, 4, and 7 for 22 hours and analyzed by flow cytometry.
# as §1
structure (smiles),measurement,setting,value
CSCC[C@H](NC(=O)[C@H](CCCCN)NC(=O)[C@H](CCCCN)NC(=O)[C@@H]1CCCN1C(=O)[C@H](CCC(N)=O)NC(=O)[C@@H]1CCCN1C(=O)[C@@H](NC(=O)[C@H](CCCCN)NC(=O)[C@H](CCCCN)NC(=O)[C@H](CCCCN)NC(=O)[C@@H]1CCCN1C(=O)[C@H](Cc1c[nH]c2ccccc12)NC(=O)[C@H](CCCNC(=N)N)NC(=O)[C@H](Cc1c[nH]cn1)NC(=O)[C@H](CCCCN)NC(=O)[C@H](CCCCN)NC(=O)[C@H](CCCCN)NC(=O)[C@H](CC(N)=O)NC(=O)[C@H](CCC(N)=O)NC(=O)[C@H](CCCCN)NC(=O)[C@H](CCCCN)NC(=O)CNC(=O)[C@H](CCCCN)NC(=O)[C@H](CCCCN)NC(=O)CCCCn1nnc2c1-c1ccccc1N(C(=O)CCCCC(=O)N1C[C@@H](COP(=O)(N(C)C)N3C[C@@H](COP(=O)(N(C)C)N4C[C@@H](COP(=O)(N(C)C)N5C[C@@H](COP(=O)(N(C)C)N6C[C@@H](COP(=O)(N(C)C)N7C[C@@H](COP(=O)(N(C)C)N8C[C@@H](COP(=O)(N(C)C)N9C[C@@H](COP(=O)(N(C)C)N%10C[C@@H](COP(=O)(N(C)C)N%11C[C@@H](COP(=O)(N(C)C)N%12C[C@@H](COP(=O)(N(C)C)N%13C[C@@H](COP(=O)(N(C)C)N%14C[C@@H](COP(=O)(N(C)C)N%15C[C@@H](COP(=O)(N(C)C)N%16C[C@@H](COP(=O)(N(C)C)N%17C[C@@H](COP(=O)(N(C)C)N%18C[C@@H](COP(=O)(N(C)C)N%19C[C@@H](COP(=O)(N(C)C)N%20CCN(C(=O)OCCOCCOCCO)CC%20)O[C@@H](n%20cnc%21c(=O)[nH]c(N)nc%21%20)C%19)O[C@@H](n%19ccc(N)nc%19=O)C%18)O[C@@H](n%18cc(C)c(=O)[nH]c%18=O)C%17)O[C@@H](n%17cnc%18c(N)ncnc%18%17)C%16)O[C@@H](n%16cc(C)c(=O)[nH]c%16=O)C%15)O[C@@H](n%15cc(C)c(=O)[nH]c%15=O)C%14)O[C@@H](n%14cnc%15c(N)ncnc%15%14)C%13)O[C@@H](n%13ccc(N)nc%13=O)C%12)O[C@@H](n%12ccc(N)nc%12=O)C%11)O[C@@H](n%11cc(C)c(=O)[nH]c%11=O)C%10)O[C@@H](n%10cc(C)c(=O)[nH]c%10=O)C9)O[C@@H](n9cnc%10c(N)ncnc%109)C8)O[C@@H](n8cnc9c(N)ncnc98)C7)O[C@@H](n7ccc(N)nc7=O)C6)O[C@@H](n6ccc(N)nc6=O)C5)O[C@@H](n5ccc(N)nc5=O)C4)O[C@@H](n4cnc5c(N)ncnc54)C3)O[C@@H](n3cnc4c(=O)[nH]c(N)nc43)C1)Cc1ccccc1-2)C(C)C)C(=O)N[C@@H](Cc1ccccc1)C(=O)N[C@@H](CCCCN)C(=O)N[C@@H](CCC(N)=O)C(=O)NCC(=O)N[C@@H](C)C(=O)NCCC(=O)NCCCCCC(=O)N[C@@H](CCCNC(=N)N)C(=O)NCCCCCC(N)=O (some centres unmarked) [MACH 4],FOLD OVER PMO,[1],25
same,cytotoxicity as determined by cell count and PI staining,[2],no cytotoxicity
